One experiment addresses T1, HCV polymerase (Hepatitis C virus genotype 1b, UniProt P26663).
T1 construct: 2.5 pmoles (0.15 μg) HCV polymerase protein in a final volume of 75 μL
In words: HCV polymerase primer/template-directed transcription assay (32P-GTP incorporation, filter binding). In kind it is biochemical. As to conditions: @ 20 uM compound; given where IC50 was impractical to calculate; read-out: percent inhibition. The essentials: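 Recombinant genotype 1b polymerase (30 nM) extended biotin-dG12 primer on poly(rC)300 template with 1 μM GTP plus α-32P-GTP, pH 7.2, 10 mM MgCl2, 30 min at 30° C, 1% DMSO final. Products captured on DE filters and counted. IC50 fitted from triplicate cpm, with a tight-binding correction applied below 200 nM.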
T1 sequence (P26663 2420-3010): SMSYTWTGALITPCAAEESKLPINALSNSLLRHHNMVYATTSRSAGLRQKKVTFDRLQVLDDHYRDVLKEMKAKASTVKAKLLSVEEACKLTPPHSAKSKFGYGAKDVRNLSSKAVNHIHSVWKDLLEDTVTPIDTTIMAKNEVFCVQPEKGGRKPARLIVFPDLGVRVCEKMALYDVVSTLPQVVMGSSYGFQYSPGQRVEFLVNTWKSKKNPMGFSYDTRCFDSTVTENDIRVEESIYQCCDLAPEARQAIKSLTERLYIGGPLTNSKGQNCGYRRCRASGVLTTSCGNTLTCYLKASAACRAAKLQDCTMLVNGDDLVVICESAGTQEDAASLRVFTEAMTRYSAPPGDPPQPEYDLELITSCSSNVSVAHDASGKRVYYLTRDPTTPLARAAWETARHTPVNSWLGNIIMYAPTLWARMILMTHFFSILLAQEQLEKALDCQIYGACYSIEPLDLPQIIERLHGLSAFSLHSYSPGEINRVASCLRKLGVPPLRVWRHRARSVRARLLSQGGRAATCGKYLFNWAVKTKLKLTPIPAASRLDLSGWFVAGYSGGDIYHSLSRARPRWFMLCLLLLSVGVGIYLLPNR
As to `COc1ccc(CCC2(C3CCCC3)CC(OCc3cccnc3)=CC(=O)O2)cc1Cl` (stereo not shown) [G(1), 6-[2-(3-chloro-4-methoxyphenyl)ethyl]-6-cyclopentyl-4-(pyridin-3-ylmethoxy)-5,6-dihydro-2H-pyran-2-one], the inhibition at 20 µM was 16%.
Still for that read-out and setting: the value for `COc1ccc(CCC2(C3CCCC3)CC(OCc3ccccn3)=CC(=O)O2)cc1Cl` (stereo not shown) [G(2), 6-[2-(3-Chloro-4-methoxy-phenyl)-ethyl]-6-cyclopentyl-4-(pyridin-2-ylmethoxy)-5,6-dihydro-pyran-2-one] was 3%.

The experiment is the same for the next values; noted with them: recombinant HCV polymerase; 30 minutes at 30° C.; concentration giving 50% inhibition of polymerase-directed transcription; read-out: IC50.
For the compound `COc1ccc(CCC2(C3CCCC3)CC(O)=C(Sc3nccn3C)C(=O)O2)cc1Cl` (stereo not shown) [C(101), 6-[2-(3-chloro-4-methoxyphenyl)ethyl]-6-cyclopentyl-4-hydroxy-3-[(1-methyl-1H-imidazol-2-yl)thio]-5,6-dihydro-2H-pyran-2-one], the IC50 came to 0.14 µM.
For the compound `COc1ccc(CCC2(C3CCCC3)CC(O)=C(Sc3nncn3C)C(=O)O2)cc1Cl` (stereo not shown) [C(102), 6-[2-(3-chloro-4-methoxyphenyl)ethyl]-6-cyclopentyl-4-hydroxy-3-[(4-methyl-4H-1,2,4-triazol-3-yl)thio]-5,6-dihydro-2H-pyran-2-one], the IC50 stood at 0.038 µM.
On the same count and under the same terms, the value for `COc1ccc(CCC2(C3CCCC3)CC(O)=C(Sc3ncc[nH]3)C(=O)O2)cc1Cl` (stereo not shown) [C(103), 6-[2-(3-chloro-4-methoxyphenyl)ethyl]-6-cyclopentyl-4-hydroxy-3-(1H-imidazol-2-ylthio)-5,6-dihydro-2H-pyran-2-one] was 0.24 µM.
In the case of `COc1ccc(CCC2(C3CCCC3)CC(O)=C(Sc3nnc(-c4ccncc4)o3)C(=O)O2)cc1Cl` (stereo not shown) [C(104), 6-[2-(3-chloro-4-methoxyphenyl)ethyl]-6-cyclopentyl-4-hydroxy-3-[(5-pyridin-4-yl-1,3,4-oxadiazol-2-yl)thio]-5,6-dihydro-2H-pyran-2-one], the half-maximal inhibitory concentration (IC50) came to 0.31 µM.
Same read-out and setting: the value for `COc1ccc(CCC2(C3CCCC3)CC(O)=C(Sc3nc(C)cc(C)c3C#N)C(=O)O2)cc1Cl` (stereo not shown) [C(105), 2-({6-[2-(3-chloro-4-methoxyphenyl)ethyl]-6-cyclopentyl-4-hydroxy-2-oxo-5,6-dihydro-2H-pyran-3-yl}thio)-4,6-dimethylnicotinonitrile] was 0.2 µM; that for `COc1ccc(CCC2(C3CCCC3)CC(O)=C(Sc3nc(-c4ccccc4)cs3)C(=O)O2)cc1Cl` (stereo not shown) [C(106), 6-[2-(3-chloro-4-methoxyphenyl)ethyl]-6-cyclopentyl-4-hydroxy-3-[(4-phenyl-1,3-thiazol-2-yl)thio]-5,6-dihydro-2H-pyran-2-one] was 0.24 µM; that for `COc1ccc(CCC2(C3CCCC3)CC(O)=C(SCc3ccccn3)C(=O)O2)cc1Cl` (stereo not shown) [C(107), 6-[2-(3-chloro-4-methoxyphenyl)ethyl]-6-cyclorpentyl-4-hydroxy-3-[(pyridin-2-ylmethyl)thio]-5,6-dihydro-2H-pyran-2-one] was 0.16 µM.
Turning to `COc1ccc(CCC2(C3CCCC3)CC(O)=C(Sc3cccc(Cl)c3Cl)C(=O)O2)cc1Cl` (stereo not shown) [C(108), 6-[2-(3-chloro-4-methoxyphenyl)ethyl]-6-cyclopentyl-3-[(2,3-dichlorophenyl)thio]-4-hydroxy-5,6-dihydro-2H-pyran-2-one], the IC50 was 0.21 µM.
Still for that read-out and setting: the value for `COc1ccc(CCC2(C3CCCC3)CC(O)=C(SCCc3ccccn3)C(=O)O2)cc1Cl` (stereo not shown) [C(109), 6-[2-(3-Chloro-4-methoxy-phenyl)-ethyl]-6-cyclopentyl-4-hydroxy-3-(2-pyridin-2-yl-ethylsulfanyl)-5,6-dihydro-pyran-2-one] was 0.9 µM.
The same measure, in the same setting: the value for `CC(C)(C#N)c1ccc(OCC2(C3CCCC3)CC(=O)CC(=O)O2)cc1F` (stereo not shown) [C(110), 2-[4-(2-Cyclopentyl-4,6-dioxo-tetrahydro-pyran-2-ylmethoxy)-2-fluoro-phenyl]-2-methyl-propionitrile] was 7.6 µM.
Take `Cc1cnc2nc(CC3=C(O)CC(COc4ccc(C(C)(C)C#N)c(F)c4)(C4CCCC4)OC3=O)nn2c1` (stereo not shown) [C(111), 2-{4-[2-Cyclopentyl-4-hydroxy-5-(6-methyl-[1,2,4]triazolo[1,5-a]pyrimidin-2-ylmethyl)-6-oxo-3,6-dihydro-2H-pyran-2-ylmethoxy]-2-fluoro-phenyl}-2-methyl-propionitrile]: the half-maximal inhibitory concentration (IC50) worked out at 0.395 µM.
Same read-out and setting: the value for `Cc1cc(C)n2nc(CC3=C(O)CC(COc4ccc(C(C)(C)C#N)c(F)c4)(C4CCCC4)OC3=O)nc2n1` (stereo not shown) [C(112), 2-{4-[2-Cyclopentyl-5-(5,7-dimethyl-[1,2,4]triazolo[1,5-a]pyrimidin-2-ylmethyl)-4-hydroxy-6-oxo-3,6-dihydro-2H-pyran-2-ylmethoxy]-2-fluoro-phenyl}-2-methyl-propionitrile] was 0.064 µM.
As for `N#CCC(=O)c1ccc(C#CC2(C3CCCC3)CC(=O)CC(=O)O2)cc1` (stereo not shown) [E(1), 3-[4-(2-Cyclopentyl-4,6-dioxo-tetrahydro-pyran-2-ylethynyl)-phenyl]-3-oxo-propionitrile], the IC50 turned out to be 22 µM.
On to `N#CCC(=O)c1ccc(C#CC2(C3CCCC3)CC(=O)CC(=O)O2)s1` (stereo not shown) [E(2), 3-[5-(2-Cyclopentyl-4,6-dioxo-tetrahydro-pyran-2-ylethynyl)-thiophen-2-yl]-3-oxo-propionitrile], for which the IC50 came to 8.2 µM.
On the same count and under the same terms, the value for `N#CCc1cccc(C#CC2(C3CCCC3)CC(=O)CC(=O)O2)c1` (stereo not shown) [E(3), [3-(2-Cyclopentyl-4,6-dioxo-tetrahydro-pyran-2-ylethynyl)-phenyl]-acetonitrile] was 65 µM; that for `Cc1cc(C#CCCC2(C3CCCC3)CC(=O)CC(=O)O2)c(C)cc1O` (stereo not shown) [F(1), 6-Cyclopentyl-6-[4-(4-hydroxy-2,5-dimethyl-phenyl)-but-3-ynyl]-dihydro-pyran-2,4-dione] was 7.2 µM; that for `NS(=O)(=O)c1cccc(C#CCCC2(C3CCCC3)CC(=O)CC(=O)O2)c1` (stereo not shown) [F(2), 3-[4-(2-Cyclopentyl-4,6-dioxo-tetrahydro-pyran-2-yl)-but-1-ynyl]-benzenesulfonamide] was 7.2 µM.
Still for that read-out and setting: the value for `CSc1ccccc1C#CCCC1(C2CCCC2)CC(=O)CC(=O)O1` (stereo not shown) [F(3), 6-Cyclopentyl-6-[4-(2-methylsulfanyl-phenyl)-but-3-ynyl]-dihydro-pyran-2,4-dione] was 8.4 µM.
The same measure, in the same setting: the value for `O=C1CC(=O)OC(CCC#Cc2ccccc2OC(F)(F)F)(C2CCCC2)C1` (stereo not shown) [F(4), 6-Cyclopentyl-6-[4-(2-trifluoromethoxy-phenyl)-but-3-ynyl]-dihydro-pyran-2,4-dione] was 5.8 µM.
With `O=C1CC(=O)OC(CCC#Cc2ccc(F)cc2)(C2CCCC2)C1` (stereo not shown) [F(5), 6-Cyclopentyl-6-[4-(4-fluoro-phenyl)-but-3-ynyl]-dihydro-pyran-2,4-dione], the IC50 came to 25 µM.
On the same count and under the same terms, the value for `Cc1ccc(C#CCCC2(C3CCCC3)CC(=O)CC(=O)O2)cc1` (stereo not shown) [F(6), 6-Cyclopentyl-6-(4-p-tolyl-but-3-ynyl)-dihydro-pyran-2,4-dione] was 83 µM.
For the compound `O=C1OC(CCC#Cc2cccc(O)c2)(C2CCCC2)CC(O)=C1Sc1nccs1` (stereo not shown) [F(7), 6-Cyclopentyl-4-hydroxy-6-[4-(3-hydroxy-phenyl)-but-3-ynyl]-3-(thiazol-2-ylsulfanyl)-5,6-dihydro-pyran-2-one], the half-inhibitory concentration (IC50) amounted to 7.5 µM.
On the same count and under the same terms, the value for `COC1=CC(=O)OC(CCc2ccc(OC)c(Cl)c2)(C2CCCC2)C1` (stereo not shown) [G(3), 6-[2-(3-Chloro-4-methoxy-phenyl)-ethyl]-6-cyclopentyl-4-methoxy-5,6-dihydro-pyran-2-one] was 29 µM.

One may read the inhibition as the drop in the measured response relative to a control, in per cent. By IC50 is commonly meant the concentration that gives 50% inhibition.

The values above are taken from patent publication US7473790B2 (Pfizer Inc., priority 2003, dated 2009).
